Measured values published in patent US20030125287A1, “Antisense oligonucleotides and methods to induce tumor cell death” (Hybridon, Inc., priority 2001, published 2003).
Entries after “also recorded” stand apart in the source; their conditions may differ. Where two headings read alike, the source gives them in different places. Oligonucleotides are written 5' to 3', each unit as a sugar letter and its base; * is a phosphorothioate linkage, no mark a phosphodiester; rarer units and linkages stand in square brackets, end groups in braces. Plain capitals give the bases only. d = 2'-deoxy (DNA)

Columns and labels:
[1] = tested on: survivin; experiment: Western blot of survivin protein in antisense oligonucleotide-treated TC620 cells; type: cell-based, human; settings: for percentage of survivin protein over β-tubulin relative to lipofectin: 48 hours (FIG. 5A)
Protocol: Subconfluent TC620 oligodendroglioma cells were transfected with lipofectin or increasing concentrations of survivin antisense oligonucleotide 904 (25 nM to 400 nM). 75 µg of total protein was loaded per lane. Blots were cut at 32.9 kD and the bottom was incubated with a survivin polyclonal antibody (1:500), while the top was incubated with a β-tubulin monoclonal antibody (1:1000).
The antisense oligonucleotides were synthesized on solid support with an automated DNA synthesizer using β-cyanoethylphosphoramidite chemistry. In order to prevent rapid degradation of the antisense oligonucleotides by cellular nucleases, oxidation was carried out with Becauge sulfurizing agent to obtain phosphorothioate backbone modified oligonucleotides. After their synthesis, the oligonucleotides were released from the solid support, deprotected, purified by reverse-phase HPLC, desalted, filtered and lyophilized. The purity and sequence integrity of oligonucleotides was ascertained by capillary gel electrophoresis and MALDI-TOF mass spectral analysis and the concentrations measured at […]. Cells were grown in 100 mm dishes and oligonucleotide treatment was performed on subconfluent cultures in the presence of Lipofectin (GIBCO) according to the manufacturer. Forty-eight hours following treatment, total protein homogenates were isolated.
Ten micrograms of the fusion protein was incubated with the survivin antibody (1:500) at 4° C. for 2 hours to overnight prior to immunoblotting. […] Blots were cut at 32.9 kD, and the bottom part of the blots were incubated with the survivin antibody overnight at 4° C. and visualized by enhanced chemiluminescence (Enhanced Chemiluminescence, Amersham, Arlington Heights, Ill.) as previously described (Sharma et al. Cell. Motil. Cytoskeleton 27:234-247).

[2] = tested on: PARP; experiment: PARP cleavage immunoblot in MSN cells; type: cell-based, human
Protocol: To determine whether MSN cell death by survivin antisense oligonucleotides was mediated by caspase-3 activation, studies were conducted to examine whether PARP was cleaved following survivin antisense treatment. […] Since no PARP cleavage was detected, further tests were conducted to determine whether survivin antisense-treated cells have any active caspase-3.

[3] = tested on: XIAP; experiment: Western blot of XIAP protein in TC620 cells; type: cell-based, human; settings: 48 hours (FIG. 10B)
Protocol: TC620 oligodendroglioma cells were transfected with lipofectin or increasing concentrations of survivin antisense oligonucleotide 904 (25 to 400 nM). Total protein was isolated after 48 hours of treatment and 75 μg of total protein was loaded per lane. The experiment was performed once.

[4] = tested on: PARP; settings: TC620 cells; 100 nM to 400 nM (FIG. 5B)
Protocol: 75 μg of total protein was loaded per lane. Following gel electrophoresis and transfer to nitrocellulose membrane, the blot was incubated with a PARP monoclonal antibody (1:500) and visualized by enhanced chemiluminescence.
(§1) Survivin polyclonal antibody was purchased from R & D Systems, Inc. (Minneapolis, Minn.). […] A generic β-tubulin monoclonal antibody (TUB 2.1) was purchased from SIGMA (St. Louis, Mo.). The XIAP mAb was purchased from StressGen Biotechnologies Corp. (Victoria, Canada). The poly-ADP ribosyl polymerase (PARP) mAb was purchased from PharMingen/Transduction Laboratories (San Diego, Calif.).

[5] = tested on: caspase-3; experiment: Caspase-3 activity assay in MSN cells; type: cell-based, human; settings: MSN cells, 400 nM, 48 hours; for caspase-3 activity, Relative units/mg protein +/− SD: triplicate
Protocol: MSN cells were treated with lipofectin, 400 nM survivin antisense oligonucleotide 903, 904, or mismatched oligonucleotide 1132, for a 48 hour period. Cell pellets were washed twice in cold PBS and re-suspended in ice-cold hypotonic cell lysis buffer (25 mM HEPES, pH 7.5, 5 mM MgCl2, 5 mM EDTA, 5 mM DTT, 2 mM PMSF, 10 μg/ml pepstatin A, 10 μg/ml leupeptin). Re-suspended pellets were incubated on ice for 20 min, followed by brief sonication for two seconds. Lysates were centrifuged at 14,000 rpm for 20 minutes at 4° C. The supernatant was retained and the protein concentration analyzed by the Bio-Rad protein assay described above.
Supernatants were assayed in triplicate, with and without the caspase-3 inhibitor, Ac-DEVD-CHO, using black opaque, 96 well, flat bottom plates (Greiner Laboratories, USA Scientific Inc., Orlando, Fla.). 50-100 μg of the supernatant was incubated in caspase-3 assay buffer (100 mM HEPES, pH 7.5, 10% sucrose, 0.1% CHAPS and 10 mM DTT) with either 2 μl of DMSO or 2 μl of 2.5 mM Ac-DEVD-CHO (Pharmingen, San Diego, Calif.) so that the final concentration of the inhibitor was 50 μM in a final volume of 100 μl. It was then incubated at 30° C. for 30 minutes. Subsequently, 2 μl of the caspase-3 substrate 2.5 mM Ac-DEVD-AMC (Pharmingen, San Diego, Calif.) (final concentration 50 μM)) was added to each well. Plates were incubated at 30° ° C. for 60 minutes in the dark.
Fluorescence of the reaction was measured using a SPECTRAmax GEMINI spectrofluorometer using SOFTmax® PRO software (Molecular Devices, Sunnyvale, Calif.) at an excitation wavelength of 355 nm and an emission wavelength of 460 nm with a cutoff filter of 455 nm. The data is presented as the ratio of the mean relative fluorescence units/mg protein±SD.

[6] = tested on: XIAP; settings: MSN cells; 400 nM; 48 hours (FIG. 10A)
Protocol: MSN cells were treated with lipofectin or 400 nM survivin antisense oligonucleotides 900, 901, 903, 904, 905 and 906. Total protein was isolated 48 hours after treatment, and 100 μg of protein was loaded per lane. The blot was incubated with a monoclonal antibody against XIAP (1:1000; IgG1). Visualization was by enhanced chemiluminescence (ECL). […] The experiment was performed twice.
Total protein homogenates were prepared according to a previously described procedure (Albala et al. (1995) J. Neurochem. 64:2480-2490). Protein content was measured using the Bio-Rad detection system (Bio-Rad Laboratories, Hercules, Calif.). Equal amounts of protein were analyzed by SDS-PAGE on 10% gels (Laemmli (1970) Nature 227:680-685). The resolved polypeptides were electrophoretically transferred to nitrocellulose (Towbin et al. (1979) Proc. Natl. Acad. Sci. USA 76:4350-4354).
as §1

Substance | effect on survivin protein levels [1] | percentage of survivin protein over β-tubulin relative to lipofectin ([1]; 25 nM) [%] | percentage of survivin protein over β-tubulin relative to lipofectin ([1]; 50 nM) [%] | percentage of survivin protein over β-tubulin relative to lipofectin ([1]; 100 nM) [%] | percentage of survivin protein over β-tubulin relative to lipofectin ([1]; 200 nM) [%] | decrease in survivin protein abundance relative to lipofectin-treated cells ([1]; 400 nM (FIG. 5A)) [%] | percentage of survivin protein over β-tubulin relative to lipofectin ([1]; 400 nM) [%] | PARP cleavage, words [2] | fold change of XIAP protein over β-tubulin relative to lipofectin ([3]; 25 nM) [fold] | fold change of XIAP protein over β-tubulin relative to lipofectin ([3]; 50 nM) [fold] | fold change of XIAP protein over β-tubulin relative to lipofectin ([3]; 100 nM) [fold] | fold change of XIAP protein over β-tubulin relative to lipofectin ([3]; 200 nM) [fold] | fold change of XIAP protein over β-tubulin relative to lipofectin ([3]; 400 nM) [fold] | PARP cleavage (116 kD to 85 kD fragment), words [4] | caspase-3 activity [5] | caspase-3 activity, Relative units/mg protein +/− SD [5] | fold change of XIAP protein over β-tubulin relative to lipofectin [6] [fold]
d(TCTTGGCTCTTTCTCTGTCC) (antisense dT*dC*dT*dT*dG*dG*dC*dT*dC*dT*dT*dT*dC*dT*dC*dT*dG*dT*dC*dC) [Oligo 904, 20-mer phosphorothioate survivin antisense oligonucleotide, complementary to survivin mRNA 5248-5267] | marked concentration-dependent reduction in survivin protein levels | 109.1 | 97.4 | 67.6 | 45.2 | 54 | 45.7 | did not activate caspase-3 or cleave the caspase-3 substrate, PARP | 1.3 | 1.0 | 0.71 | 0.67 | 0.66 | dramatic decrease of the 116 kD PARP protein; also recorded: resulted in the cleavage of the 116 kD caspase-3 substrate PARP | no significant increase in caspase-3 activity; also recorded: did not activate caspase-3 | 33,532 ± 3732 Relative units/mg protein | –
d(GCTTCCCAGTCACATCCTGT) (antisense dG*dC*dT*dT*dC*dC*dC*dA*dG*dT*dC*dA*dC*dA*dT*dC*dC*dT*dG*dT) [Oligo 906] | – | – | – | – | – | – | – | – | – | – | – | – | – | – | – | – | 8.3
d(GCACCTAGTCTCCCTGCACC) (DNA, all phosphorothioate, methylation of C not given here) [Oligo 1132, mismatched phosphorothioate control oligonucleotide, not complementary to survivin mRNA, reference compound] | – | – | – | – | – | – | – | – | – | – | – | – | – | – | no significant increase in caspase-3 activity | 30,961 ± 1681 Relative units/mg protein | –
